# Assay results from ChEMBL document CHEMBL3885881, “DrugMatrix”.
# Species on record: Rattus norvegicus
# Assay: DrugMatrix - Regimen: Daily Repeat
# Format: toxicity, organism-based, Sprague-Dawley
# Parameters: regimen Daily Repeat, gender Male, age 6-8 weeks
# Conditions: in vivo, po, 3 mg/kg, route oral GAVAGE, dose level Low, vehicle .5 % CMC; for ABSOLUTE BASOPHIL / ABSOLUTE EOSINOPHIL / ABSOLUTE LYMPHOCYTE / ABSOLUTE MONOCYTE / ABSOLUTE SEGMENTED NEUTROPHIL / BASOPHIL / EOSINOPHIL / ERYTHROCYTE COUNT / HEMATOCRIT / HEMOGLOBIN / LEUKOCYTE COUNT / LYMPHOCYTE / MEAN CORPUSCULAR HEMOGLOBIN / MEAN CORPUSCULAR HEMOGLOBIN CONCENTRATION / MEAN CORPUSCULAR VOLUME / MONOCYTE / NEUTROPHIL / NUCLEATED RED BLOOD CELLS / PLATELET COUNT: tissue Blood; for ALANINE AMINOTRANSFERASE / ALBUMIN / ALKALINE PHOSPHATASE / ASPARTATE AMINOTRANSFERASE / BLOOD UREA NITROGEN / CARBON DIOXIDE / CHLORIDE / CHOLESTEROL / CREATINE PHOSPHOKINASE / CREATININE / GLUCOSE / LACTATE DEHYDROGENASE / LIPASE / PHOSPHORUS / POTASSIUM / SODIUM / TOTAL BILIRUBIN / TOTAL PROTEIN / URIC ACID: tissue Plasma
smiles,measurement,setting,value
C=CC[C@@H]1/C=C(\C)C[C@H](C)C[C@H](OC)[C@H]2O[C@@](O)(C(=O)C(=O)N3CCCC[C@H]3C(=O)O[C@H](/C(C)=C/[C@@H]3CC[C@@H](O)[C@H](OC)C3)[C@H](C)[C@@H](O)CC1=O)[C@H](C)C[C@@H]2OC [TACROLIMUS ANHYDROUS],ABSOLUTE BASOPHIL,"72 h, time 3 day",0 CELLS/uL
same,ABSOLUTE EOSINOPHIL,"72 h, time 3 day",115.33 CELLS/uL
same,ABSOLUTE LYMPHOCYTE,"72 h, time 3 day",12942.67 CELLS/uL
same,ABSOLUTE MONOCYTE,"72 h, time 3 day",191 CELLS/uL
same,ABSOLUTE SEGMENTED NEUTROPHIL,"72 h, time 3 day",1684.33 CELLS/uL
same,BASOPHIL,"72 h, time 3 day",0%
same,EOSINOPHIL,"72 h, time 3 day",0.67%
same,ERYTHROCYTE COUNT,"72 h, time 3 day",5.73 x10E6/uL
same,HEMATOCRIT,"72 h, time 3 day",36.53%
same,HEMOGLOBIN,"72 h, time 3 day",13.97 G/DL
same,LEUKOCYTE COUNT,"72 h, time 3 day",14.93 x10E3/uL
same,LYMPHOCYTE,"72 h, time 3 day",86.67%
same,MEAN CORPUSCULAR HEMOGLOBIN,"72 h, time 3 day",24.37 pg
same,MEAN CORPUSCULAR HEMOGLOBIN CONCENTRATION,"72 h, time 3 day",38.27 G/DL
same,MEAN CORPUSCULAR VOLUME,"72 h, time 3 day",63.77 fL
same,MONOCYTE,"72 h, time 3 day",1.33%
same,NEUTROPHIL,"72 h, time 3 day",11.33%
same,NUCLEATED RED BLOOD CELLS,"72 h, time 3 day",0 /100WBC
same,PLATELET COUNT,"72 h, time 3 day",1252.33 x10E3/uL
same,ALANINE AMINOTRANSFERASE,"72 h, time 3 day",50.67 u/L
same,ALBUMIN,"72 h, time 3 day",4.1 G/DL
same,ALKALINE PHOSPHATASE,"72 h, time 3 day",348.33 u/L
same,ASPARTATE AMINOTRANSFERASE,"72 h, time 3 day",75.67 u/L
same,BLOOD UREA NITROGEN,"72 h, time 3 day",16.33 mg/dL
same,CARBON DIOXIDE,"72 h, time 3 day",31.67 mmol/L
same,CHLORIDE,"72 h, time 3 day",99.33 MEQ/L
same,CHOLESTEROL,"72 h, time 3 day",79 mg/dL
same,CREATINE PHOSPHOKINASE,"72 h, time 3 day",194.33 u/L
same,CREATININE,"72 h, time 3 day",0.26 mg/dL
same,GLUCOSE,"72 h, time 3 day",149.33 mg/dL
same,LACTATE DEHYDROGENASE,"72 h, time 3 day",133.33 u/L
same,LIPASE,"72 h, time 3 day",9.33 u/L
same,PHOSPHORUS,"72 h, time 3 day",12.63 mg/dL
same,POTASSIUM,"72 h, time 3 day",6.77 MEQ/L
same,SODIUM,"72 h, time 3 day",144.97 MEQ/L
same,TOTAL BILIRUBIN,"72 h, time 3 day",0.2 mg/dL
same,TOTAL PROTEIN,"72 h, time 3 day",5.83 G/DL
same,URIC ACID,"72 h, time 3 day",1.67 mg/dL
same,ABSOLUTE BASOPHIL,"120 h, time 5 day",0 CELLS/uL
same,ABSOLUTE EOSINOPHIL,"120 h, time 5 day",0 CELLS/uL
same,ABSOLUTE LYMPHOCYTE,"120 h, time 5 day",15415.33 CELLS/uL
same,ABSOLUTE MONOCYTE,"120 h, time 5 day",188 CELLS/uL
same,ABSOLUTE SEGMENTED NEUTROPHIL,"120 h, time 5 day",1663.33 CELLS/uL
same,BASOPHIL,"120 h, time 5 day",0%
same,EOSINOPHIL,"120 h, time 5 day",0%
same,ERYTHROCYTE COUNT,"120 h, time 5 day",5.95 x10E6/uL
same,HEMATOCRIT,"120 h, time 5 day",36.57%
same,HEMOGLOBIN,"120 h, time 5 day",14.1 G/DL
same,LEUKOCYTE COUNT,"120 h, time 5 day",17.27 x10E3/uL
same,LYMPHOCYTE,"120 h, time 5 day",89.33%
same,MEAN CORPUSCULAR HEMOGLOBIN,"120 h, time 5 day",23.77 pg
same,MEAN CORPUSCULAR HEMOGLOBIN CONCENTRATION,"120 h, time 5 day",38.57 G/DL
same,MEAN CORPUSCULAR VOLUME,"120 h, time 5 day",61.53 fL
same,MONOCYTE,"120 h, time 5 day",1%
same,NEUTROPHIL,"120 h, time 5 day",9.67%
same,NUCLEATED RED BLOOD CELLS,"120 h, time 5 day",0 /100WBC
same,PLATELET COUNT,"120 h, time 5 day",1336 x10E3/uL
same,ALANINE AMINOTRANSFERASE,"120 h, time 5 day",51.33 u/L
same,ALBUMIN,"120 h, time 5 day",4.23 G/DL
same,ALKALINE PHOSPHATASE,"120 h, time 5 day",303 u/L
same,ASPARTATE AMINOTRANSFERASE,"120 h, time 5 day",80 u/L
same,BLOOD UREA NITROGEN,"120 h, time 5 day",17 mg/dL
same,CARBON DIOXIDE,"120 h, time 5 day",27.67 mmol/L
same,CHLORIDE,"120 h, time 5 day",101.67 MEQ/L
same,CHOLESTEROL,"120 h, time 5 day",81 mg/dL
same,CREATINE PHOSPHOKINASE,"120 h, time 5 day",231 u/L
same,CREATININE,"120 h, time 5 day",0.2 mg/dL
same,GLUCOSE,"120 h, time 5 day",164 mg/dL
same,LACTATE DEHYDROGENASE,"120 h, time 5 day",171.67 u/L
same,LIPASE,"120 h, time 5 day",9.33 u/L
same,PHOSPHORUS,"120 h, time 5 day",13.2 mg/dL
same,POTASSIUM,"120 h, time 5 day",6.36 MEQ/L
same,SODIUM,"120 h, time 5 day",144.37 MEQ/L
same,TOTAL BILIRUBIN,"120 h, time 5 day",0.2 mg/dL
same,TOTAL PROTEIN,"120 h, time 5 day",6.13 G/DL
same,URIC ACID,"120 h, time 5 day",1.73 mg/dL
